The record followed here is patent publication US6887873B2, “Triazine derivatives and their application as antitelomerase agents” (Aventis Pharma S.A., priority 2001, dated 2005).

pIC50: −log10 of the molar value.

Assay [1] deals with G-quadruplex of oligonucleotide GGGTTAGGGTTAGGGTTAGGG (3.5 repeats of the human telomereic motif). Description: G-quadruplex stabilizing activity, fluorescence Tm (FAM+DABCYL oligonucleotide). Type of assay: binding. The source says:
The G-quadruplex stabilizing activity may be determined by a method using the formation of a complex with fluorescein of which the experimental protocol is described below.
All the nucleotides, modified or otherwise, were synthesized by Eurogentec SA, Seraing, Belgium. The oligonucleotide FAM+DABCYL carries the catalogue reference OL-0371-0802. It has the sequence: […] corresponding to 3.5 repeats of the human telomereic motif (strand rich in G). The fluorescein is attached to the 5′ end, the DABCYL to the 3′ end, by the chemical arms described by Eurogentec. The concentration of the samples is checked by spectrophotometry, recording the absorbance spectrum between 220 and 700 nm and using the molar extinction coefficient provided by the supplier.
All the experiments were carried out in a 10 mM sodium cacodylate buffer pH 7.6 containing 0.1 M lithium chloride (or sodium chloride). The absence of fluorescent contamination in the buffer was checked beforehand. The fluorescent oligonucleotide is added at the final concentration of 0.2 μM.
All the measurements of fluorescence were carried out on a Spex Fluorolog DM1B apparatus, using an excitation line width of 1.8 nm and an emission line width of 4.5 nm. The samples are placed in a microquartz cuvette of 0.2×1 cm. The temperature of the sample is controlled by an external water bath. The oligonucleotide alone was analysed at 20, 30, 40, 50, 60, 70 and 80° C. The emission spectra are recorded using an excitation wavelength of 470 nm. The excitation spectra are recorded using either 515 nm or 588 nm as emission wavelength. The spectra are corrected for the response of the instrument by reference curves. A high extinction (80-90%) of the fluorescence of fluorescein at room temperature is observed, in agreement with an intramolecular folding of the oligonucleotide at 20° C. in the form of a G-quadruplex, which induces juxtaposition of its 5′ and 3′ ends which are respectively linked to fluorescein and to DABCYL. This juxtaposition causes an already-described phenomenon of extinction of fluorescence which is used for “molecular beacons”.
An oligonucleotide stock solution at the strand concentration of 0.2 μM in 0.1 M LiCl, 10 mM cacodylate buffer, pH 7.6, is prepared beforehand, heated briefly at 90° C. and slowly cooled to 20° C., and then distributed in aliquots of 600 μl in the fluorescence cuvettes. 3 μl of water (for the control) or 3 μl of test product (stock at 200 μM, final concentration 1 μM) are then added and mixed. The samples are then allowed to incubate for at least 1 hour at 20° C. before each measurement. The use of longer incubation times (up to 24 hours) has no influence on the result obtained.
Each experiment allows the measurement of only one sample. The latter is first incubated at an initial temperature of 20° C., heated to 80° C. over 38 minutes, left for 5 minutes at 80° C. and then cooled to 20° C. over 62 minutes. During this time, the fluorescence is measured simultaneously at two emission wavelengths (515 nm and 588 nm) using 470 nm as excitation wavelength. A measurement is carried out every 30 seconds. The temperature of the water bath is recorded in parallel, and the fluorescence profile as a function of the temperature is reconstituted from these values. The fluorescence profiles are then normalized between 20° C. and 80° C., and the temperature for which the intensity of emission at 515 nm is the mean of those at high and low temperature is called Tm. Under these conditions, the Tm of the reference sample without addition of product is 44° C. in a lithium chloride buffer. This temperature is increased to more than 55° C. in a sodium chloride buffer. The addition of a G-quadruplex-stabilizing compound induces an increase in the Tm. This increase is judged to be significant if it is greater than 3°.

Assay [2] has as its system human telomerease (HL60 cell extract). Description: Antitelomerease activity: extension of oligonucleotide TS followed by PCR amplification, with HL60 extract. The assay is classed as biochemical. The note with it: read-out: TRAP IC50. As to the method: The antitelomerease biological activity is determined by the following experimental protocol:
The leukaemia line HL60 is obtained from ATCC (American Type Culture Collection, Rockville, USA). The cells are cultured in suspension in RPMI 1640 medium containing L-glutamine at 2 mM, penicillin 200 U/ml, streptomycin 200 μg/ml, gentamycin 50 μg/ml and supplemented with 10% heat-inactivated foetal calf serum.
An aliquot of 10^5 cells is centrifuged at 3000×G and the supernatant discarded. The cell pellet is resuspended by several successive pipettings in 200 μl of lysis buffer containing 0.5% CHAPS, 10 mM Tris-HCl, pH 7.5, 1 mM MgCl2, 1 mM EGTA, 5 mM β-mercaptoethanol, 0.1 mM PMSF and 10% glycerol and is stored in ice for 30 minutes. The lysate is centrifuged at 160,000×G for 20 minutes at 4° C. and 160 μl of supernatant are recovered. The proteins in the extract are assayed by the Bradford method. The extract is stored at −80° C.
The inhibition of the telomerease activity is determined by a protocol for extension of the oligonucleotide TS (^5′AATCGTTCGAGCAGAGTT^3′), in the presence of a cellular extract enriched in telomerease activity and compounds which are added at various concentrations (10, 1, 0.1 and 0.01 μM). The extension reaction is followed by a PCR amplification of the extension products with the aid of the oligonucleotides TS and CXext (^5′[…]^3′).
The reaction medium is prepared based on the following composition:
The oligonucleotides are obtained from Eurogentec (Belgium) and are stored at −20° C. at a stock concentration of 1 mg/ml in distilled water.
The reaction samples are assembled in 0.2 ml PCR tubes and one drop of paraffin oil is deposited on each of the reactions of the experiment before closing the tubes.
The reaction samples are then incubated in a Cetus 4800-type PCR apparatus under the following temperature conditions: • 15 minutes at 30° C., • 1 minute at 90° C., • followed by 30 cycles of, • 30 seconds at 94° C., • 30 seconds at 50° C., • and 1 minute 30 seconds at 72° C., • followed by a final cycle of 2 minutes at 72° C.
For each of the samples, an aliquot of 10 μl is pipetted under the oil layer and mixed with 5 μl of a loading buffer containing:
The samples are then analysed by electrophoresis on 12% acrylamide gel in a 1×TBE buffer for 1 hour at a voltage of 200 volts, with the aid of a Novex electrophoresis system.
The acrylamide gels are then dried on a sheet of Whatmann 3 mm paper at 80° C. for 1 hour.
The analysis and the quantification of the reaction products are carried out with the aid of an InstantImager apparatus (Pacard).
For each compound concentration tested, the results are expressed as percentage inhibition of the reaction and calculated from the untreated enzymatic control and from the enzyme-free sample (blank) according to the following formula: (compound value−blank value/enzymatic control value−blank value)×100.
The concentration of compound inducing a 50% inhibition of the telomerease reaction (IC50) is determined with the aid of a semilogarithmic graphical representation of the inhibition values obtained as a function of each of the compound concentrations tested.
A compound is considered to be active as an antitelomerease agent when the quantity inhibiting 50% of the telomerease reaction is in particular less than 5 μM.

One may read the pIC50 as the negative decadic logarithm of the IC50, by convention in mol/L. As to `Cc1cc(N)c2cc(Nc3nc(Nc4ccc5nc(C)cc(N)c5c4)nc(NC(CO)CO)n3)ccc2n1` [Example 173], the “G4 delta Tm” value in assay [1] is 11.5 °C. Further, in assay [2], the pIC50 is 6.21.
In the same order, the values of `Cc1cc(N)c2cc(Nc3nc(Nc4ccc5nc(C)cc(N)c5c4)nc(N4CCN(C(=O)C5CCCO5)CC4)n3)ccc2n1` (stereo not drawn) [Example 72] are 9.5 °C and 6.68.
Turning to `Cc1cc(N)c2cc(Nc3nc(Nc4ccc5nc(C)cc(N)c5c4)nc(N4CCC(O)CC4)n3)ccc2n1` [Example 155], in assay [1], the “G4 delta Tm” value is 14 °C. The pIC50 in assay [2] is 6.41.
With `CCN(CCN(C)C)c1nc(Nc2ccc3nc(C)cc(N)c3c2)nc(Nc2ccc3nc(C)cc(N)c3c2)n1` [Example 53], the “G4 delta Tm” value in assay [1] amounted to 15.5 °C. The pIC50 in assay [2] is 6.70.
Take `CC(=O)NCCNc1nc(Nc2ccc3nc(C)cc(N)c3c2)nc(Nc2ccc3nc(C)cc(N)c3c2)n1` [Example 35]: the “G4 delta Tm” value in assay [1] was 11.0 °C. Moreover, the pIC50 in assay [2] is 6.30.
In the same order, the values of `Cc1cc(N(C)C)c2cc(Nc3nc(Nc4ccc5nc(C)cc(N(C)C)c5c4)nc(N4CCCC(O)C4)n3)ccc2n1` (stereo not drawn) [Example 169] are 16.5 °C and 6.15.
In the case of `COc1ccc(COc2nc(Nc3ccc4nc(C)cc(N)c4c3)nc(Nc3ccc4nc(C)cc(N)c4c3)n2)cc1` [Example 113], the “G4 delta Tm” value in assay [1] is 6 °C. Further, the negative logarithm of the IC50 (pIC50) in assay [2] was 6.28.
The matching figures for `Cc1cc(N(C)C)c2cc(Nc3nc(Nc4ccc5nc(C)cc(N(C)C)c5c4)nc(NC(C)CO)n3)ccc2n1` (stereo not drawn) [Example 175]: 3 °C and 5.52.
Regarding `Cc1cc(N)c2cc(Nc3nc(NCCN4CCCCC4)nc(Nc4ccc5nc(C)cc(N)c5c4)n3)ccc2n1` [Example 90], the “G4 delta Tm” value in assay [1] is 11 °C. For the same compound, in assay [2], the pIC50 was 6.43.
In the same order, the values of `COCCN1CCN(c2nc(Nc3ccc4nc(C)cc(N)c4c3)nc(Nc3ccc4nc(C)cc(N)c4c3)n2)CC1` [Example 73] are 9.5 °C and 6.43.
The matching figures for `Cc1cc(N(C)C)c2cc(Nc3nc(Nc4ccc5nc(C)cc(N(C)C)c5c4)nc(N4CCN(CCO)CC4)n3)ccc2n1` [Example 163]: 13 °C and 5.92.
In the same order, the values of `Cc1cc(N(C)C)c2cc(Nc3nc(Nc4ccc5nc(C)cc(N(C)C)c5c4)nc(Sc4ccc5ccccc5n4)n3)ccc2n1` [Example 133, 2,4-bis(4-dimethylamino-2-methylquinolin-6-yl)amino-6-(quinolin-2-yl)thio-[1,3,5]triazine] are 25 °C and 6.74.
With `Cc1cc(N(C)C)c2cc(Nc3nc(NCC4CCCN4)nc(Nc4ccc5nc(C)cc(N(C)C)c5c4)n3)ccc2n1` (stereo not drawn) [Example 22], the “G4 delta Tm” value in assay [1] came to 2.7 °C. Further, the negative-log IC50 (pIC50) in assay [2] was 6.47.
On to `Cc1cc(N)c2cc(Nc3nc(Nc4ccc5nc(C)cc(N)c5c4)nc(Oc4ccccn4)n3)ccc2n1` [Example 110], for which, in assay [1], the “G4 delta Tm” value was found to be 20.5 °C. Moreover, in assay [2], the pIC50 is 6.21.
The matching figures for `COCCOc1nc(Nc2ccc3nc(C)cc(N)c3c2)nc(Nc2ccc3nc(C)cc(N)c3c2)n1` [Example 112]: 15 °C and 6.49.
The matching figures for `Cc1cc(N)c2cc(Nc3nc(Nc4ccc5nc(C)cc(N)c5c4)nc(N4CCCCC4CN4CCCCC4)n3)ccc2n1` (stereo not drawn) [Example 70]: 9.5 °C and 6.25.
In the same order, the values of `CCN(CC)CCOc1nc(Nc2ccc3nc(C)cc(N)c3c2)nc(Nc2ccc3nc(C)cc(N)c3c2)n1` [Example 106] are 14.5 °C and 6.55.
For `Cc1cc(N)c2cc(Nc3nc(Nc4ccc5nc(C)cc(N)c5c4)nc(N4CCN(CCO)CC4)n3)ccc2n1` [Example 154], the “G4 delta Tm” value in assay [1] is 19 °C. Moreover, in assay [2], the pIC50 is 6.70.
